Results reported in patent US9822099B2, “Triazole derivatives” (priority 2013, dated 2017).
Marks after values point to notes of the source that are not given here.

Tested on: Puccinia recondita
Assay: Example B: in vivo preventive test on Puccinia recondita (brown rust on wheat)
Conditions: 500 ppm of active ingredient; wheat plants, preventive spray; evaluated 11 days after inoculation
Protocol: (§1) The young plants of wheat are treated by spraying the active ingredient prepared as described above. Control plants are treated only with an aqueous solution of acetone/Dimethyl sulfoxide/Tween®. After 24 hours, the plants are contaminated by spraying the leaves with an aqueous suspension of Puccinia recondita spores.

Row | SMILES | Eff. %
1 | OC(Cc1ccc(F)cc1)(Cc1ccncc1Cl)Cn1cncn1 (racemic) [Example I-75] | 81%
2 | OC(Cc1ccncc1Cl)(Cn1cncn1)c1ccc2oc3ccccc3c2c1 (racemic) [Example I-80] | 88%
3 | Cc1cccc2cc(CC(O)(Cn3cncn3)C3(Cl)CC3)c(Cl)nc12 (racemic) [Example I-84] | 88%
4 | OC(Cc1ccnc(Cl)c1F)(Cn1cncn1)C1(F)CC1 (racemic) [Example I-87] | 89%
5 | OC(Cc1cccc(Cl)c1)(Cc1ccnc(Cl)c1F)Cn1cncn1 (racemic) [Example I-88] | 89%
6 | OC(Cc1cc(Oc2ccc(Cl)cc2)nnc1Cl)(Cn1cncn1)C1(Cl)CC1 (stereo not shown) [Example I-55] | 79%
7 | OC(Cc1ccnc(Cl)c1F)(Cn1cncn1)c1cccnc1Cl (stereo not shown) [Example I-59] | 98%

Tested on: Sphaerotheca fuliginea
Assay: Example E: in vivo preventive test on Sphaerotheca fuliginea (powdery mildew on cucurbits)
Conditions: 100 ppm of active ingredient; gherkin plants, preventive spray; evaluated 15 days after inoculation
Protocol: as §1, with “gherkin” for “wheat”, “Sphaerotheca fuliginea” for “Puccinia recondita”

Row | SMILES | Eff. %
8 | OC(Cc1ccncc1Cl)(Cn1cncn1)c1cccnc1Cl (stereo not shown) [Example I-14] | 100%
9 | OC(Cc1cc(Cl)cc(Cl)n1)(Cn1cncn1)C1(Cl)CC1 (stereo not shown) [Example I-17] | 100%
10 | OC(Cc1ccncc1F)(Cn1cncn1)c1cccnc1Cl (stereo not shown) [Example I-23] | 88%
11 | OC(Cc1ccncc1F)(Cn1cncn1)c1ccc(Cl)nc1 (stereo not shown) [Example I-24] | 94%
12 | OC(Cc1cc(Cl)ncc1F)(Cn1cncn1)C1(F)CC1 (stereo not shown) [Example I-41] | 100%
13 | CC(CF)(CF)C(O)(Cc1cc(Cl)ncc1F)Cn1cncn1 (stereo not shown) [Example I-44] | 100%

Same assay, conditions: 500 ppm of active ingredient; gherkin plants, preventive spray; evaluated 15 days after inoculation

Row | SMILES | Eff. %
14 | COc1nccnc1CC(O)(Cn1cncn1)C1(Cl)CC1 (racemic) [Example I-72] | 98%
15 | OC(Cc1ccc(F)cc1)(Cc1ccncc1Cl)Cn1cncn1 (racemic) [Example I-75] | 100%
16 | OC(Cc1ccncc1Cl)(Cn1cncn1)c1ccc2oc3ccccc3c2c1 (racemic) [Example I-80] | 100%
17 | OC(Cc1ccnc(Cl)c1F)(Cn1cncn1)C1(F)CC1 (racemic) [Example I-87] | 72%
18 | OC(Cc1cccc(Cl)c1)(Cc1ccnc(Cl)c1F)Cn1cncn1 (racemic) [Example I-88] | 98%
19 | Cc1cccc(CC(O)(Cn2cncn2)C2(Cl)CC2)n1 (stereo not shown) [Example I-48] | 83%
20 | OC(Cc1cc(Oc2ccc(Cl)cc2)nnc1Cl)(Cn1cncn1)C1(Cl)CC1 (stereo not shown) [Example I-55] | 100%
21 | OC(Cc1ccnc(Cl)c1F)(Cn1cncn1)c1cccnc1Cl (stereo not shown) [Example I-59] | 100%

Tested on: Uromyces appendiculatus
Assay: Example F: in vivo preventive test on Uromyces appendiculatus (bean rust)
Conditions: 100 ppm of active ingredient; bean plants, preventive spray; evaluated 11 days after inoculation
Protocol: as §1, with “bean” for “wheat”, “Uromyces appendiculatus” for “Puccinia recondita”

Row | SMILES | Eff. %
22 | OC(Cc1ccncc1Cl)(Cn1cncn1)c1cccnc1Cl (stereo not shown) [Example I-14] | 87%
23 | OC(Cc1cc(Cl)cc(Cl)n1)(Cn1cncn1)C1(Cl)CC1 (stereo not shown) [Example I-17] | 94%
24 | OC(Cc1ccncc1F)(Cn1cncn1)c1cccnc1Cl (stereo not shown) [Example I-23] | 92%
25 | OC(Cc1ccncc1F)(Cn1cncn1)c1ccc(Cl)nc1 (stereo not shown) [Example I-24] | 92%
26 | OC(Cc1cc(Cl)ncc1F)(Cn1cncn1)C1(F)CC1 (stereo not shown) [Example I-41] | 94%
27 | CC(CF)(CF)C(O)(Cc1cc(Cl)ncc1F)Cn1cncn1 (stereo not shown) [Example I-44] | 94%

Same assay, conditions: 500 ppm of active ingredient; bean plants, preventive spray; evaluated 11 days after inoculation

Row | SMILES | Eff. %
28 | COc1nccnc1CC(O)(Cn1cncn1)C1(Cl)CC1 (racemic) [Example I-72] | 100%
29 | OC(Cc1ccncc1Cl)(Cn1cncn1)c1ccc2oc3ccccc3c2c1 (racemic) [Example I-80] | 99%
30 | Cc1cccc2cc(CC(O)(Cn3cncn3)C3(Cl)CC3)c(Cl)nc12 (racemic) [Example I-84] | 100%
31 | OC(Cc1ccnc(Cl)c1F)(Cn1cncn1)C1(F)CC1 (racemic) [Example I-87] | 78%
32 | Cc1cccc(CC(O)(Cn2cncn2)C2(Cl)CC2)n1 (stereo not shown) [Example I-48] | 81%
33 | OC(Cc1cc(Oc2ccc(Cl)cc2)nnc1Cl)(Cn1cncn1)C1(Cl)CC1 (stereo not shown) [Example I-55] | 98%
34 | OC(Cc1ccnc(Cl)c1F)(Cn1cncn1)c1cccnc1Cl (stereo not shown) [Example I-59] | 100%

Tested on: Septoria tritici
Assay: Example D: in vivo preventive test on Septoria tritici (leaf spot on wheat)
Conditions: 100 ppm of active ingredient; wheat plants, preventive spray; evaluated 24 days after inoculation
Protocol: as §1, with “Septoria tritici” for “Puccinia recondita”

Row | SMILES | Eff. %
35 | Cc1cccc2cc(CC(O)(Cn3cncn3)C3(Cl)CC3)c(Cl)nc12 (racemic) [Example I-84] | 81%
36 | OC(Cc1cc(Cl)cc(Cl)n1)(Cn1cncn1)C1(Cl)CC1 (stereo not shown) [Example I-17] | 97%

Same assay, conditions: 500 ppm of active ingredient; wheat plants, preventive spray; evaluated 24 days after inoculation

Row | SMILES | Eff. %
37 | COc1nccnc1CC(O)(Cn1cncn1)C1(Cl)CC1 (racemic) [Example I-72] | 80%
38 | OC(Cc1ccc(F)cc1)(Cc1ccncc1Cl)Cn1cncn1 (racemic) [Example I-75] | 100%
39 | OC(Cc1ccncc1Cl)(Cn1cncn1)c1ccc2oc3ccccc3c2c1 (racemic) [Example I-80] | 100%
40 | OC(Cc1ccnc(Cl)c1F)(Cn1cncn1)C1(F)CC1 (racemic) [Example I-87] | 83%
41 | OC(Cc1cccc(Cl)c1)(Cc1ccnc(Cl)c1F)Cn1cncn1 (racemic) [Example I-88] | 100%
42 | OC(Cc1cc(Oc2ccc(Cl)cc2)nnc1Cl)(Cn1cncn1)C1(Cl)CC1 (stereo not shown) [Example I-55] | 100%
43 | OC(Cc1ccnc(Cl)c1F)(Cn1cncn1)c1cccnc1Cl (stereo not shown) [Example I-59] | 100%

Tested on: not given
Assay: not given
Conditions: method [a]: LC-MS at pH 2.7, 0.1% formic acid in water / acetonitrile gradient

Row | SMILES | LogP
44 | OC(Cc1ccncc1Cl)(Cn1cncn1)c1ccc2oc3ccccc3c2c1 (racemic) [Example I-80] | 2.40^[a]

Same assay, conditions: pH 2.7

Row | SMILES | LogP
45 | COc1nccnc1CC(O)(Cn1cncn1)C1(Cl)CC1 (racemic) [Example I-72] | 1.88^[a]
46 | OC(Cc1ccc(F)cc1)(Cc1ccncc1Cl)Cn1cncn1 (racemic) [Example I-75] | 1.93^[a]
47 | Cc1cccc2cc(CC(O)(Cn3cncn3)C3(Cl)CC3)c(Cl)nc12 (racemic) [Example I-84] | 3.53^[a]
48 | OC(Cc1ccnc(Cl)c1F)(Cn1cncn1)C1(F)CC1 (racemic) [Example I-87] | 1.23^[a]
49 | OC(Cc1cccc(Cl)c1)(Cc1ccnc(Cl)c1F)Cn1cncn1 (racemic) [Example I-88] | 2.02^[a]
50 | OC(Cc1ccncc1Cl)(Cn1cncn1)c1cccnc1Cl (stereo not shown) [Example I-14] | 1.23^[a]
51 | OC(Cc1cc(Cl)cc(Cl)n1)(Cn1cncn1)C1(Cl)CC1 (stereo not shown) [Example I-17] | 2.76^[a]
52 | OC(Cc1ccncc1F)(Cn1cncn1)c1cccnc1Cl (stereo not shown) [Example I-23] | 0.91^[a]
53 | OC(Cc1ccncc1F)(Cn1cncn1)c1ccc(Cl)nc1 (stereo not shown) [Example I-24] | 0.99^[a]
54 | OC(Cc1cc(Cl)ncc1F)(Cn1cncn1)C1(F)CC1 (stereo not shown) [Example I-41] | 1.66^[a]
55 | CC(CF)(CF)C(O)(Cc1cc(Cl)ncc1F)Cn1cncn1 (stereo not shown) [Example I-44] | 1.89^[a]
56 | Cc1cccc(CC(O)(Cn2cncn2)C2(Cl)CC2)n1 (stereo not shown) [Example I-48] | 0.52^[a]
57 | OC(Cc1cc(Oc2ccc(Cl)cc2)nnc1Cl)(Cn1cncn1)C1(Cl)CC1 (stereo not shown) [Example I-55] | 3.08^[a]
58 | OC(Cc1ccnc(Cl)c1F)(Cn1cncn1)c1cccnc1Cl (stereo not shown) [Example I-59] | 1.54^[a]
